3 compounds from US12686680B2, “Substituted pyrazolo[1,5-α]pyrimidines as CRF receptor antagonists” (Neurocrine Biosciences, Inc., priority 2019, dated 2026) can be followed below.

A short description of series [1]: Solubility determination of Compound 1 Form I in various vehicles (Example 60). The format is physicochemical. The procedure: The solubility of Compound 1 Form I was evaluated in various vehicles in an attempt to achieve doses of 0.5 mg/mL (IV) and 1.0 mg/mL (PO). […] Vortex mixing and sonication were used to dissolve particles, then samples were transferred to 0.22 μm nylon centrifuge tube filters and centrifuged for approximately 2 minutes @10,000 rpm. All samples were diluted with the method diluent (if necessary) and analyzed by HPLC providing the results shown in the below Table.

A short description of series [2]: Solubility determination of solid forms of Compound 1 in solvents (Example 52). The format is physicochemical. The source says: X-Ray Powder diffraction (XRPD), differential scanning calorimetry (DSC), thermal gravimetric analysis (TGA), and UV-Metric/pH-Metric Titration (SiriusT3) were used to characterize Form I of Compound 1. UPLC was used to evaluate solubility of each material in various vehicles.

With `CCCN(Cc1ccc(-c2csc(N(C)C)n2)cc1)c1cc(C)nc2c(-c3cnc(N(C)C)cc3C)c(C)nn12` [Compound 1 Form I, 5-{7-[({4-[2-(dimethylamino)-1,3-thiazol-4-yl]phenyl}methyl)(propyl)amino]-2,5-dimethylpyrazolo[1,5-a]pyrimidin-3-yl}-N,N,4-trimethylpyridin-2-amine], the “Final/Actual pH” value in series [1] (50 mM Citrate, pH 2) amounted to 3.1; in series [1] (50 mM Citrate, pH 3), 3.3; in series [1] (50 mM Citrate, pH 4) it was 4.1; in series [1] (50 mM Citrate, pH 5), 5.0; in series [1] (50 mM Citrate, pH 6), 6.1; in series [1] (50 mM Citrate, pH 7), 7.1. In addition, the “Final/Actual pH” value in series [1] (50 mM Phosphate, pH 8) was determined as 8.1; in series [1] (1% Poloxamer 188 in Water), 8.0; in series [1] (1% TW80 in Water), 7.6; in series [1] (10% HP-β-CD in Water), 8.2; in series [1] (100% Water) it was 8.3. For the same compound, the “Solubility <USP 34>” value in series [1] (50 mM Citrate, pH 2) is given as “Slightly Soluble”; in series [1] (50 mM Citrate, pH 3), “Slightly Soluble”; in series [1] (50 mM Citrate, pH 4), “Practically”; in series [1] (50 mM Citrate, pH 5), “Practically”; in series [1] (50 mM Citrate, pH 6), “Practically”; in series [1] (50 mM Citrate, pH 7), “Practically”. Moreover, the “Solubility <USP 34>” value was “Practically” in series [1] (50 mM Phosphate, pH 8); “Practically” in series [1] (1% Poloxamer 188 in Water); “Practically” in series [1] (1% TW80 in Water); “Practically” in series [1] (10% HP-β-CD in Water); “Practically” in series [1] (100% Water). For the same compound, the “[Compound 1]” value in series [1] (50 mM Citrate, pH 2) is 3.3 mg/mL; in series [1] (50 mM Citrate, pH 3) it was 1.7 mg/mL; in series [1] (50 mM Citrate, pH 4), around 0 mg/mL; in series [1] (50 mM Citrate, pH 5), around 0 mg/mL; in series [1] (50 mM Citrate, pH 6), around 0 mg/mL; in series [1] (50 mM Citrate, pH 7), around 0 mg/mL. In addition, the “[Compound 1]” value in series [1] (50 mM Phosphate, pH 8) is on record as “Below”; in series [1] (1% Poloxamer 188 in Water) it was around 0 mg/mL; in series [1] (1% TW80 in Water), around 0 mg/mL; in series [1] (10% HP-β-CD in Water), around 0 mg/mL; in series [1] (100% Water) it was around 0 mg/mL.
As to `CCCN(Cc1ccc(-c2csc(N(C)C)n2)cc1)c1cc(C)nc2c(-c3cnc(N(C)C)cc3C)c(C)nn12` [Compound 1-1 (FB), 5-{7-[({4-[2-(dimethylamino)-1,3-thiazol-4-yl]phenyl}methyl)(propyl)amino]-2,5-dimethylpyrazolo[1,5-a]pyrimidin-3-yl}-N,N,4-trimethylpyridin-2-amine], the Solubility in series [2] (50 mM CB pH 3) amounted to 1.7 mg/mL FB; in series [2] (50 mM CB pH 4), 0 mg/mL FB; in series [2] (50 mM CB pH 5), 0 mg/mL FB; in series [2] (50 mM CB pH 6) it was 0 mg/mL FB; in series [2] (50 mM PB pH 1) it was 14.9 mg/mL FB; in series [2] (50 mM PB pH 2), 6.5 mg/mL FB. The Solubility in series [2] (50 mM PB pH 7) and in series [2] (100% H2O) was 0 mg/mL FB in each case. Also, the “Measured pH” value in series [2] (50 mM CB pH 4) was “pH 4.1”; in series [2] (50 mM CB pH 5) it was “pH 4.4”; in series [2] (50 mM CB pH 6), “pH 6.1”; in series [2] (50 mM PB pH 2), “pH 2.7”; in series [2] (50 mM PB pH 7), “pH 7.0”; in series [2] (100% H2O), “pH 6.7”.
For the compound `CCCN(Cc1ccc(-c2csc(N(C)C)n2)cc1)c1cc(C)nc2c(-c3cnc(N(C)C)cc3C)c(C)nn12` [Compound 1-2 (FB), 5-{7-[({4-[2-(dimethylamino)-1,3-thiazol-4-yl]phenyl}methyl)(propyl)amino]-2,5-dimethylpyrazolo[1,5-a]pyrimidin-3-yl}-N,N,4-trimethylpyridin-2-amine], the “Measured pH” value was “pH 3.3” in series [2] (50 mM CB pH 3); “pH 4.1” in series [2] (50 mM CB pH 4); “pH 5.0” in series [2] (50 mM CB pH 5); “pH 6.1” in series [2] (50 mM CB pH 6); “pH 3.1” in series [2] (50 mM PB pH 2); “pH 7.1” in series [2] (50 mM PB pH 7). Moreover, the “Measured pH” value in series [2] (50 mM PB pH 8) is listed as “pH 8.1”; in series [2] (100% H2O) it was “pH 8.3”. For the same compound, the Solubility in series [2] (50 mM CB pH 3) was 1.7 mg/mL FB; in series [2] (50 mM CB pH 4), 0 mg/mL FB; in series [2] (50 mM CB pH 5) it was 0 mg/mL FB; in series [2] (50 mM CB pH 6) it was 0 mg/mL FB; in series [2] (50 mM PB pH 2), 3.3 mg/mL FB; in series [2] (50 mM PB pH 7), 0 mg/mL FB. The Solubility in series [2] (50 mM PB pH 8) and in series [2] (100% H2O) was 0 mg/mL FB each time.
